# Reference: PubChem BioAssay (NCI)
#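 Five concentrations, 48 hours, 96-well plates. At the TGI there is no net growth.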
# Experiments:
# Assay in all cases: DTP human tumour cell line panel, 48 h
# 786-0 renal = tested on: 786-0 renal
# A498 renal = tested on: A498 renal
# A549 NSCLC = tested on: A549 NSCLC
# ACHN renal = tested on: ACHN renal
# BT-549 breast = tested on: BT-549 breast
# CAKI-1 renal = tested on: CAKI-1 renal
# CCRF-CEM leukemia = tested on: CCRF-CEM leukemia
# COLO 205 colon = tested on: COLO 205 colon
# DU-145 prostate = tested on: DU-145 prostate
# EKVX NSCLC = tested on: EKVX NSCLC
# HCT-116 colon = tested on: HCT-116 colon
# HCT-15 colon = tested on: HCT-15 colon
# HL-60(TB) leukemia = tested on: HL-60(TB) leukemia
# HOP-62 NSCLC = tested on: HOP-62 NSCLC
# HOP-92 NSCLC = tested on: HOP-92 NSCLC
# HS 578T breast = tested on: HS 578T breast
# HT29 colon = tested on: HT29 colon
# IGROV1 ovarian = tested on: IGROV1 ovarian
# K-562 leukemia = tested on: K-562 leukemia
# KM12 colon = tested on: KM12 colon
# LOX IMVI melanoma = tested on: LOX IMVI melanoma
# M14 melanoma = tested on: M14 melanoma
# MALME-3M melanoma = tested on: MALME-3M melanoma
# MCF7 breast = tested on: MCF7 breast
# MDA-MB-435 = tested on: MDA-MB-435
# MDA-N = tested on: MDA-N
# MOLT-4 leukemia = tested on: MOLT-4 leukemia
# NCI-H23 lung = tested on: NCI-H23 lung
# NCI-H522 lung = tested on: NCI-H522 lung
# NCI/ADR-RES ovarian = tested on: NCI/ADR-RES ovarian
# OVCAR-3 ovarian = tested on: OVCAR-3 ovarian
# OVCAR-4 ovarian = tested on: OVCAR-4 ovarian
# OVCAR-5 ovarian = tested on: OVCAR-5 ovarian
# OVCAR-8 ovarian = tested on: OVCAR-8 ovarian
# PC-3 prostate = tested on: PC-3 prostate
# RPMI-8226 leukemia = tested on: RPMI-8226 leukemia
# RXF 393 renal = tested on: RXF 393 renal
# SF-268 CNS = tested on: SF-268 CNS
# SF-295 CNS = tested on: SF-295 CNS
# SF-539 CNS = tested on: SF-539 CNS
# SK-MEL-2 melanoma = tested on: SK-MEL-2 melanoma
# SK-MEL-28 melanoma = tested on: SK-MEL-28 melanoma
# SK-MEL-5 melanoma = tested on: SK-MEL-5 melanoma
# SK-OV-3 ovarian = tested on: SK-OV-3 ovarian
# SN12C renal = tested on: SN12C renal
# SNB-19 CNS = tested on: SNB-19 CNS
# SNB-75 CNS = tested on: SNB-75 CNS
# SR leukemia = tested on: SR leukemia
# SW-620 colon = tested on: SW-620 colon
# T-47D breast = tested on: T-47D breast
# UACC-62 melanoma = tested on: UACC-62 melanoma
# UO-31 renal = tested on: UO-31 renal
# HCC-2998 colon = tested on: HCC-2998 colon
# MDA-MB-231 breast = tested on: MDA-MB-231 breast
# NCI-H226 lung = tested on: NCI-H226 lung
# NCI-H460 lung = tested on: NCI-H460 lung
# TK-10 renal = tested on: TK-10 renal
# U251 CNS = tested on: U251 CNS
# UACC-257 melanoma = tested on: UACC-257 melanoma
compound,measurement,setting,value
COc1cc(NC(C)=O)ccc1C(=O)N/N=C/c1ccco1,TGI,786-0 renal,> 100 µM
same,TGI,A498 renal,> 100 µM
same,TGI,A549 NSCLC,> 100 µM
same,TGI,ACHN renal,> 100 µM
same,TGI,BT-549 breast,> 100 µM
same,TGI,CAKI-1 renal,> 100 µM
same,TGI,CCRF-CEM leukemia,> 100 µM
same,TGI,COLO 205 colon,> 100 µM
same,TGI,DU-145 prostate,> 100 µM
same,TGI,EKVX NSCLC,> 100 µM
same,TGI,HCT-116 colon,> 100 µM
same,TGI,HCT-15 colon,> 100 µM
same,TGI,HL-60(TB) leukemia,> 100 µM
same,TGI,HOP-62 NSCLC,> 100 µM
same,TGI,HOP-92 NSCLC,> 100 µM
same,TGI,HS 578T breast,> 100 µM
same,TGI,HT29 colon,> 100 µM
same,TGI,IGROV1 ovarian,> 100 µM
same,TGI,K-562 leukemia,> 100 µM
same,TGI,KM12 colon,> 100 µM
same,TGI,LOX IMVI melanoma,> 100 µM
same,TGI,M14 melanoma,> 100 µM
same,TGI,MALME-3M melanoma,> 100 µM
same,TGI,MCF7 breast,> 100 µM
same,TGI,MDA-MB-435,> 100 µM
same,TGI,MDA-N,> 100 µM
same,TGI,MOLT-4 leukemia,> 100 µM
same,TGI,NCI-H23 lung,> 100 µM
same,TGI,NCI-H522 lung,> 100 µM
same,TGI,NCI/ADR-RES ovarian,> 100 µM
same,TGI,OVCAR-3 ovarian,> 100 µM
same,TGI,OVCAR-4 ovarian,> 100 µM
same,TGI,OVCAR-5 ovarian,> 100 µM
same,TGI,OVCAR-8 ovarian,> 100 µM
same,TGI,PC-3 prostate,> 100 µM
same,TGI,RPMI-8226 leukemia,> 100 µM
same,TGI,RXF 393 renal,> 100 µM
same,TGI,SF-268 CNS,> 100 µM
same,TGI,SF-295 CNS,> 100 µM
same,TGI,SF-539 CNS,> 100 µM
same,TGI,SK-MEL-2 melanoma,> 100 µM
same,TGI,SK-MEL-28 melanoma,> 100 µM
same,TGI,SK-MEL-5 melanoma,> 100 µM
same,TGI,SK-OV-3 ovarian,> 100 µM
same,TGI,SN12C renal,> 100 µM
same,TGI,SNB-19 CNS,> 100 µM
same,TGI,SNB-75 CNS,> 100 µM
same,TGI,SR leukemia,> 100 µM
same,TGI,SW-620 colon,> 100 µM
same,TGI,T-47D breast,> 100 µM
same,TGI,UACC-62 melanoma,> 100 µM
same,TGI,UO-31 renal,> 100 µM
CC1(O)C2(c3ccccc3)CCC[N+]1(C)CC2 (stereo not given),TGI,A498 renal,> 100 µM
same,TGI,BT-549 breast,> 100 µM
same,TGI,CAKI-1 renal,> 100 µM
same,TGI,CCRF-CEM leukemia,> 100 µM
same,TGI,COLO 205 colon,> 100 µM
same,TGI,DU-145 prostate,> 100 µM
same,TGI,HCC-2998 colon,> 100 µM
same,TGI,HCT-116 colon,> 100 µM
same,TGI,HCT-15 colon,> 100 µM
same,TGI,HL-60(TB) leukemia,> 100 µM
same,TGI,HOP-62 NSCLC,> 100 µM
same,TGI,HOP-92 NSCLC,> 100 µM
same,TGI,HS 578T breast,> 100 µM
same,TGI,HT29 colon,> 100 µM
same,TGI,IGROV1 ovarian,> 100 µM
same,TGI,K-562 leukemia,> 100 µM
same,TGI,KM12 colon,> 100 µM
same,TGI,LOX IMVI melanoma,> 100 µM
same,TGI,M14 melanoma,> 100 µM
same,TGI,MALME-3M melanoma,> 100 µM
same,TGI,MCF7 breast,> 100 µM
same,TGI,MDA-MB-231 breast,> 100 µM
same,TGI,MDA-MB-435,> 100 µM
same,TGI,MDA-N,> 100 µM
same,TGI,MOLT-4 leukemia,> 100 µM
same,TGI,NCI-H226 lung,> 100 µM
same,TGI,NCI-H23 lung,> 100 µM
same,TGI,NCI-H460 lung,> 100 µM
same,TGI,NCI/ADR-RES ovarian,> 100 µM
same,TGI,OVCAR-3 ovarian,> 100 µM
same,TGI,OVCAR-4 ovarian,> 100 µM
same,TGI,OVCAR-5 ovarian,> 100 µM
same,TGI,OVCAR-8 ovarian,> 100 µM
same,TGI,PC-3 prostate,> 100 µM
same,TGI,RPMI-8226 leukemia,> 100 µM
same,TGI,RXF 393 renal,> 100 µM
same,TGI,SF-295 CNS,> 100 µM
same,TGI,SK-MEL-2 melanoma,> 100 µM
same,TGI,SK-MEL-28 melanoma,> 100 µM
same,TGI,SK-MEL-5 melanoma,> 100 µM
same,TGI,SK-OV-3 ovarian,> 100 µM
same,TGI,SN12C renal,> 100 µM
same,TGI,SNB-19 CNS,> 100 µM
same,TGI,SNB-75 CNS,> 100 µM
same,TGI,SW-620 colon,> 100 µM
same,TGI,T-47D breast,> 100 µM
same,TGI,TK-10 renal,> 100 µM
same,TGI,U251 CNS,> 100 µM
same,TGI,UACC-257 melanoma,> 100 µM
same,TGI,UACC-62 melanoma,> 100 µM
same,TGI,UO-31 renal,> 100 µM
COC(=O)/C=C\C(C#N)(C#N)N=Cc1cccs1,TGI,786-0 renal,> 46.3 µM
same,TGI,A498 renal,34.3 µM
same,TGI,A549 NSCLC,> 56 µM
same,TGI,ACHN renal,4.12 µM
same,TGI,BT-549 breast,19.9 µM
same,TGI,CAKI-1 renal,3.77 µM
same,TGI,CCRF-CEM leukemia,3.58 µM
same,TGI,DU-145 prostate,24.3 µM
same,TGI,EKVX NSCLC,25.2 µM
same,TGI,HCC-2998 colon,33.8 µM
same,TGI,HCT-116 colon,> 50.2 µM
same,TGI,HCT-15 colon,5.69 µM
same,TGI,HL-60(TB) leukemia,4.2 µM
same,TGI,HOP-62 NSCLC,32.6 µM
same,TGI,HOP-92 NSCLC,3.75 µM
same,TGI,HS 578T breast,78.3 µM
same,TGI,HT29 colon,4.24 µM
same,TGI,IGROV1 ovarian,32 µM
same,TGI,K-562 leukemia,> 100 µM
same,TGI,KM12 colon,37.8 µM
same,TGI,LOX IMVI melanoma,6.68 µM
same,TGI,M14 melanoma,15.4 µM
same,TGI,MALME-3M melanoma,6.61 µM
same,TGI,MCF7 breast,4.06 µM
same,TGI,MDA-MB-231 breast,5.74 µM
same,TGI,MDA-MB-435,18 µM
same,TGI,MDA-N,49.3 µM
same,TGI,MOLT-4 leukemia,> 24.5 µM
same,TGI,NCI-H226 lung,20.7 µM
same,TGI,NCI-H23 lung,27.3 µM
same,TGI,NCI-H460 lung,39.7 µM
same,TGI,NCI-H522 lung,2.24 µM
same,TGI,NCI/ADR-RES ovarian,45 µM
same,TGI,OVCAR-3 ovarian,25.1 µM
same,TGI,OVCAR-4 ovarian,17 µM
same,TGI,OVCAR-5 ovarian,22.1 µM
same,TGI,OVCAR-8 ovarian,14.4 µM
same,TGI,PC-3 prostate,26 µM
same,TGI,RPMI-8226 leukemia,7.36 µM
same,TGI,RXF 393 renal,5.51 µM
same,TGI,SF-268 CNS,32.1 µM
same,TGI,SF-295 CNS,42.3 µM
same,TGI,SK-MEL-2 melanoma,34.3 µM
same,TGI,SK-MEL-28 melanoma,26 µM
same,TGI,SK-MEL-5 melanoma,11.2 µM
same,TGI,SK-OV-3 ovarian,42.3 µM
same,TGI,SN12C renal,38.7 µM
same,TGI,SNB-19 CNS,> 56.5 µM
same,TGI,SNB-75 CNS,29.3 µM
same,TGI,T-47D breast,7.51 µM
same,TGI,TK-10 renal,3.43 µM
same,TGI,U251 CNS,> 53.3 µM
same,TGI,UACC-257 melanoma,27.6 µM
same,TGI,UACC-62 melanoma,25.4 µM
same,TGI,UO-31 renal,5.99 µM
Cc1nn(C(=O)Cc2ccccc2)c2c1C(c1ccc([N+](=O)[O-])cc1)SC(N)=N2 (stereo not given),TGI,786-0 renal,> 100 µM
same,TGI,A498 renal,> 100 µM
same,TGI,A549 NSCLC,> 100 µM
same,TGI,ACHN renal,> 100 µM
same,TGI,BT-549 breast,> 100 µM
same,TGI,CAKI-1 renal,> 100 µM
same,TGI,CCRF-CEM leukemia,> 100 µM
same,TGI,COLO 205 colon,> 100 µM
same,TGI,DU-145 prostate,> 100 µM
same,TGI,EKVX NSCLC,> 100 µM
same,TGI,HCC-2998 colon,> 100 µM
same,TGI,HCT-116 colon,> 100 µM
same,TGI,HCT-15 colon,> 100 µM
same,TGI,HL-60(TB) leukemia,> 100 µM
same,TGI,HOP-62 NSCLC,> 100 µM
same,TGI,HS 578T breast,> 100 µM
same,TGI,HT29 colon,> 100 µM
same,TGI,IGROV1 ovarian,> 100 µM
same,TGI,K-562 leukemia,> 100 µM
same,TGI,KM12 colon,> 100 µM
same,TGI,LOX IMVI melanoma,> 100 µM
same,TGI,M14 melanoma,> 100 µM
same,TGI,MALME-3M melanoma,> 100 µM
same,TGI,MCF7 breast,> 100 µM
same,TGI,MDA-MB-231 breast,> 100 µM
same,TGI,MDA-MB-435,> 100 µM
same,TGI,MDA-N,> 100 µM
same,TGI,MOLT-4 leukemia,> 100 µM
same,TGI,NCI-H23 lung,> 100 µM
same,TGI,NCI-H460 lung,> 100 µM
same,TGI,NCI-H522 lung,> 100 µM
same,TGI,OVCAR-8 ovarian,> 100 µM
same,TGI,PC-3 prostate,> 100 µM
same,TGI,RPMI-8226 leukemia,> 100 µM
same,TGI,SF-268 CNS,> 100 µM
same,TGI,SF-295 CNS,> 100 µM
same,TGI,SF-539 CNS,> 100 µM
same,TGI,SK-MEL-28 melanoma,> 100 µM
same,TGI,SK-MEL-5 melanoma,> 100 µM
same,TGI,SK-OV-3 ovarian,> 100 µM
same,TGI,SN12C renal,> 100 µM
same,TGI,SR leukemia,> 100 µM
same,TGI,SW-620 colon,> 100 µM
same,TGI,T-47D breast,> 100 µM
same,TGI,TK-10 renal,> 100 µM
same,TGI,UACC-257 melanoma,> 100 µM
same,TGI,UACC-62 melanoma,> 100 µM
